From ChEMBL document CHEMBL1201862, “PubChem BioAssay data set” (2004)
Calls of active or inactive are those of the source.

Key:
Cytochrome P450 2D6 = Cytochrome P450 2D6 (Homo sapiens, UniProt P10635);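 further: CYP2D6 member of a cytochrome P450 panel assay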
Cytochrome P450 1A2 [1] = target: T1, Cytochrome P450 1A2 (Homo sapiens, UniProt P05177);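 further: PubChem cytochrome P450 panel assay, CYP1A2 panel member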
T1 sequence (P05177 whole entry): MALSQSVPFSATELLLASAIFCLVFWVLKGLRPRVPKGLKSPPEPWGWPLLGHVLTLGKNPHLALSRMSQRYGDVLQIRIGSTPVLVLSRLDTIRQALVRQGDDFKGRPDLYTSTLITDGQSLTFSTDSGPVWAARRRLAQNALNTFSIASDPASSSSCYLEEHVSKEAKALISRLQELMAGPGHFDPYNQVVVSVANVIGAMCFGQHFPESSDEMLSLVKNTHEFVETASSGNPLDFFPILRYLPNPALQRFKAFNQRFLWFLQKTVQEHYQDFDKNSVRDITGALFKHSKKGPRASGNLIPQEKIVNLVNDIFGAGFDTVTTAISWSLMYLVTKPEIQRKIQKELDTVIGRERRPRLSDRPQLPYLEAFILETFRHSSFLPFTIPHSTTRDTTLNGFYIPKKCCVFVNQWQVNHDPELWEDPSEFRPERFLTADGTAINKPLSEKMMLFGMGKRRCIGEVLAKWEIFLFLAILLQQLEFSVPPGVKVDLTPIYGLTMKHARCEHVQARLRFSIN

[2] = target: T2, RNA-binding protein pos-1 (Caenorhabditis elegans, UniProt G5EF15); experiment: disruptors of C. elegans POS-1 RNA interaction – biochemical, fluorescence polarization, dose response (AID 1964);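 further: purified POS-1 fused to maltose binding protein made in E. coli; potency of compounds blocking POS-1 binding to fluorescent RNA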
T2 sequence (G5EF15 whole entry): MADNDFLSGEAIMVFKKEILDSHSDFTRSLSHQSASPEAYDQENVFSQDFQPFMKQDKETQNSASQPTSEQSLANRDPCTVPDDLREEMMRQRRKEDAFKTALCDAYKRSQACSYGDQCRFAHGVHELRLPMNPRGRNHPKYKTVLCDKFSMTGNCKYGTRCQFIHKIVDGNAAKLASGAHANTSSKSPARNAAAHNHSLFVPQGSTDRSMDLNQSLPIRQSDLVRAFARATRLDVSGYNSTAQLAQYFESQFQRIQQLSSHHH

[3] = target: UDP-galactopyranose mutase (Mycobacterium tuberculosis, UniProt P9WIQ1); experiment: Inhibitors of Mycobacterium tuberculosis UDP-galactopyranose mutase (UGM) enzyme Measured in Biochemical System Using Plate Reader - 2105-02_Inhibitor_Dose_CherryPick_Activity. [Related pubchem assays (depositor defined):AID504439]
Chain of UDP-galactopyranose mutase (P9WIQ1 whole entry): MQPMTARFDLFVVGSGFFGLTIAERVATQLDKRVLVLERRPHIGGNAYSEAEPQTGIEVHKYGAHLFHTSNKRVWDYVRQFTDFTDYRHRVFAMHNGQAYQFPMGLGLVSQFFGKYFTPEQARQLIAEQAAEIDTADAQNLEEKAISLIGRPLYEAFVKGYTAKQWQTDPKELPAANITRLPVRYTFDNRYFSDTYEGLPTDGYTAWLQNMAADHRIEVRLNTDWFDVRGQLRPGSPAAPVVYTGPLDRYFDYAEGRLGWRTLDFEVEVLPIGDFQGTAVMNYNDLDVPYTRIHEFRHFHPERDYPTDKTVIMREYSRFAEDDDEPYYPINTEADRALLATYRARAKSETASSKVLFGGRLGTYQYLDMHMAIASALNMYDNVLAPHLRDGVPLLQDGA

[4] = target: Sphingosine 1-phosphate receptor 1 (Homo sapiens, UniProt P21453); experiment: Fluorescence-based counterscreen assay for S1P4 agonists: Cell-based dose response high throughput screening assay to identify agonists of the Sphingosine 1-Phosphate Receptor 1 (S1P1). [Related pubchem assays (depositor defined):AID1509, AID1523, AID1801, AID463107, AID463118, AID463119, AID463122, AID463123, AID463129, AID463225, AID504400, AID504460]; assay type: functional
Chain of Sphingosine 1-phosphate receptor 1 (P21453 whole entry): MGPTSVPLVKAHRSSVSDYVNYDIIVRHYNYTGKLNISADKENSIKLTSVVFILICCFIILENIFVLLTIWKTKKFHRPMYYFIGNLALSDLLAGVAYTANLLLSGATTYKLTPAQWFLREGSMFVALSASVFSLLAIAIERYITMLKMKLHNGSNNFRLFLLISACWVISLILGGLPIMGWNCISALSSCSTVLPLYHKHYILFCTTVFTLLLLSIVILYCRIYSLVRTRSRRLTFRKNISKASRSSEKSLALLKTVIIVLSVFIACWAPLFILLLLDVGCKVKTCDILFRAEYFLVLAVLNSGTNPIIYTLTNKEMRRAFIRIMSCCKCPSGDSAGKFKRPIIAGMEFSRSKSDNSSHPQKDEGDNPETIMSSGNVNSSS

[5] = target: T3, Sphingosine 1-phosphate receptor 4 (Homo sapiens, UniProt O95977); experiment: Fluorescence dose response cell-based high throughput screening assay for agonists of the Sphingosine 1-Phosphate Receptor 4 (S1P4). [Related pubchem assays: 1509 (Primary screen.), 1523 (Confirmation screen in triplicates.)]; assay type: functional
T3 sequence (O95977 whole entry): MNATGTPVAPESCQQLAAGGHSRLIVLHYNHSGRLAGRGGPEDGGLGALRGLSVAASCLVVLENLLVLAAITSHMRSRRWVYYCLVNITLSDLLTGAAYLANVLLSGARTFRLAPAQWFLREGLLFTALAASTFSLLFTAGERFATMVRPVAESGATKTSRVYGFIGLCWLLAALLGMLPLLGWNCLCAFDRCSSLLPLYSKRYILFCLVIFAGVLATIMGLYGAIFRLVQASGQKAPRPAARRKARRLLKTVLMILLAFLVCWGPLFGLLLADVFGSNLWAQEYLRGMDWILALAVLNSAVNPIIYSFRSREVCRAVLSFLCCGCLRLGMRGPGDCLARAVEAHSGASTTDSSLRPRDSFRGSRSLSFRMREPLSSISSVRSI

Cytochrome P450 2C19 = Cytochrome P450 2C19 (Homo sapiens, UniProt P33261); experiment: Cytochrome panel assay with activity outcomes. Panel member name: p450-cyp2c19 Compounds with AC50 equal or less than 10 uM are considered active; assay type: functional; details: read-out: AC50
Chain of Cytochrome P450 2C19 (P33261 whole entry): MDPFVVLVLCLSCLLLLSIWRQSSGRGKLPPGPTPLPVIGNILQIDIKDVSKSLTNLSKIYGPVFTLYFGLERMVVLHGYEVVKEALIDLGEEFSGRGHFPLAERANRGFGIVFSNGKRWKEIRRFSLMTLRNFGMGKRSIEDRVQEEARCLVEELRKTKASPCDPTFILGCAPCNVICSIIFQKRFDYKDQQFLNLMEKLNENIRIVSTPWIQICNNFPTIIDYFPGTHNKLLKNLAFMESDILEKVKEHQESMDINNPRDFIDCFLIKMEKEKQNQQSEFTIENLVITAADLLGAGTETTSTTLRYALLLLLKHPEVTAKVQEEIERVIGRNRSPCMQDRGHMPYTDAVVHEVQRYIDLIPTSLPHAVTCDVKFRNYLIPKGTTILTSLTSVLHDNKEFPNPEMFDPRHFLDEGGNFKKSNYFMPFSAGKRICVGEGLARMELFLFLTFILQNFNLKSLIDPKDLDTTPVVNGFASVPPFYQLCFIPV

Cytochrome P450 1A2 [6] = target: T1, Cytochrome P450 1A2; remark: listed apart in the source
[7] = NIH-3T3 fibroblast cytotoxicity, dose response, cytotoxicity control, cell-based, fluorescence, Alamar Blue, secondary assay (AID 2327); assay type: functional;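 further: NIH-3T3 mouse fibroblasts cultured with fluconazole at 8 µg/mL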
BJ [8] = experiment: BJ-TERT fibroblast viability loss – cell-based, RAS-independent, luminescence, dose response (AID 1933); assay type: functional; details: Homo sapiens
BJ [9] = experiment: cells; assay type: functional, cell-based; details: Homo sapiens
[10] = fluconazole-exposed Candida albicans growth modulators – fluorescence, retest, confirmation (AID 2467); assay type: functional, cell-based
BJ [11] = experiment: BJ-TERT-LT-ST fibroblast viability loss – cell-based, RAS-independent, luminescence, dose response (AID 1935); assay type: functional; details: Homo sapiens;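 further: BJ fibroblasts immortalized with TERT plus LT and ST oncogenes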
[12] = DRD fibroblast viability loss – cell-based, non-viral oncogenic, luminescence, dose response (AID 1934); assay type: functional; details: Homo sapiens
[13] = target: G-protein coupled receptor 55 (Homo sapiens, UniProt Q9Y2T6); experiment: blockers of GPR55 signalling, imaged – imaging, image-based, counter-screen for GPR35 antagonist project, SAR follow-up (AID 2397); assay type: functional
Chain of G-protein coupled receptor 55 (Q9Y2T6 whole entry): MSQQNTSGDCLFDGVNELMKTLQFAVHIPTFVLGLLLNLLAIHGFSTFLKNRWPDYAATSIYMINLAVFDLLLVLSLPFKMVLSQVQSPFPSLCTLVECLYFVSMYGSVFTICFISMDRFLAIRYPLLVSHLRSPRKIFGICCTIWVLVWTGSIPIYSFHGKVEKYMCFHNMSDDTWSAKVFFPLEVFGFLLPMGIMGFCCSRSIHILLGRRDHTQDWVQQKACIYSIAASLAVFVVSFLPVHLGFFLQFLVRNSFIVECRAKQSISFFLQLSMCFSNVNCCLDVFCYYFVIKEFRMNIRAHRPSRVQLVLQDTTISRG

INS1 = experiment: INS-1E survival protection against cytokine death – cell-based, luminescence, retest, dose response (AID 449756); assay type: functional; details: Rattus norvegicus;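 further: cell death triggered by IL-1 beta plus TNF-alpha plus IFN-gamma mixture; protective hits raise ATP signal compared with cytokine alone wells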

Chain of Cytochrome P450 2D6 (P10635 whole entry): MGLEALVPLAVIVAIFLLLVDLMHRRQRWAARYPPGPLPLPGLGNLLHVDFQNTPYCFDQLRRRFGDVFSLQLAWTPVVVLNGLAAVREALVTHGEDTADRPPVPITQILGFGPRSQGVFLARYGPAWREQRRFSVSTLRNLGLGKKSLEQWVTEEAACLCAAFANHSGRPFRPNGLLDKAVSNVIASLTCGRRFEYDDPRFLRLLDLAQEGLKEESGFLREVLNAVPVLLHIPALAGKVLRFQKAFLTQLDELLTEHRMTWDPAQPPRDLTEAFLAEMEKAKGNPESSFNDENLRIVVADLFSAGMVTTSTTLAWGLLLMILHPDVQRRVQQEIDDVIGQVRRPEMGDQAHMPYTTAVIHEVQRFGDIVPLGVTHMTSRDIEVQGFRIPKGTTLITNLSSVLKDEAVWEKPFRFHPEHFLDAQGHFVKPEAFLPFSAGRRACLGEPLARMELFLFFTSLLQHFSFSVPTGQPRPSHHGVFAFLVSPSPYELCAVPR

For `COc1ccccc1CN1CC2(CCN(S(C)(=O)=O)CC2)C1`, the AC50 (Cytochrome P450 2D6) was “inconclusive” and the AC50 (Cytochrome P450 1A2 [1]) was “inconclusive”.

With `COCCNC(=O)Cn1cc(/C=C2\C(=O)NC(=O)N(c3ccccc3F)C2=O)c2ccccc21` the EC50 [2] was 6.32 µM (active) and the AC50 [3] was 32.1 µM (active).

With `COC(=O)c1c(-n2c(C)cc(C=O)c2C)sc2c1CCCC2` the EC50 [4] was > 49.8 µM (inactive), the EC50 [5] was > 49.8 µM (not active) and the AC50 (Cytochrome P450 2C19) was 794 nM (inconclusive). The AC50 (Cytochrome P450 1A2 [6]) was 5.01 µM (inconclusive).

With `Cn1cc(/C=C/c2cc[n+](C)cc2)c2cc(Cl)ccc21` the EC50 [7] was > 150 µM (inactive), the EC50 (BJ [8]) was 9.8 µM (active) and the EC50 (BJ [9]) was 16.2 µM (active). For the same compound, the EC50 [10] was 1.29 µM (active), the EC50 (BJ [11]) was > 150 µM (not active) and the EC50 [12] was 22.1 µM (inconclusive). The IC50 [13] was 3.42 µM (active) and the AC50 (INS1) was 4.33 µM (active).
